From US11008325B2, “Inhibitors of cancer invasion, attachment, and/or metastasis” (VIRGINIA COMMONWEALTH UNIVERSITY, priority 2016, dated 2021)

What was measured:
[1] = test system: U87 cells; experiment: MTT assay after radiation; type: cell-based, human; settings: radiation plus PDZ1i versus radiation plus DMSO
Description: (§1) FIGS. 8A-8D. PDZ1i produces similar effects to mda-9/syntenin knockdown post-radiation. FIG. 8A. ImPHFA and U87 cells were treated with 50 μM PDZ1i 2 h prior to radiation and analyzed for colony formation after 14 d. FIG. 8B. U87 cells were treated with 50 μM PDZ1i 2 h prior to radiation and analyzed via MTT assay after 24 h. FIG. 8C. U87 cells were pretreated with 50 μM PDZ1i 2 h prior to radiation and subsequently seeded in a trans-well Matrigel invasion assay and stained after 24 h. Invasion was quantified from 5 random fields in FIG. 8D. Error bars=±s.d. *p<0.05, **p<0.01.
(§2) Clonogenic radiosurvival experiments were carried out as described previously (4,7). Briefly, cells were diluted, seeded on 6-cm dishes, and after the cells attached, treated with DMSO or PDZ1i (12.5, 25, or 50 μM) in the medium for 2 h before irradiation. Cells were incubated overnight, and the medium changed to nondrug containing medium 16 h postirradiation. Cells were incubated further for 14 days, stained with 2% Giemsa solution, and colonies consisting of 50 or more were counted. Cell viability was assessed through MTT analysis as described previously (8).

[2] = test system: GBM6 cells; experiment: orthotopic GBM6 xenograft model; type: in vivo, mice
Description: FIGS. 13A-13E. Effect of PDZ1i on survival in an in vivo model of glioma. GBM6 cells were pretreated for 2 hrs prior to intracranial injection with vehicle (DMSO) or PDZ1i and after 7 days, brain tissue was isolated and sectioned at injection site. FIG. 13A, brain tissue at site of injection of DMSO treated cells; FIG. 13B, brain tissue are site of injection of PDZ1i treated cells. 7 days after tumor implantation, mice received either vehicle or PDZ1i (30 mg/kg) three times per week for 3 weeks. Brain tissue was isolated and analyzed via H&E stain, FIG. 13C, brain tissue from mice treated with vehicle; FIG. 13D, brain tissue from mice treated with PDZ1i. FIG. 13E, Kaplan-Myer curves of these groups based on animal survival. **p<0.01.
PDZ1i is effective in reducing tumor invasion in an animal model of GBM. To test the efficacy of PDZ1i, we used an orthotopic xenograft model with GBM6 cells that were pretreated with either DMSO or PDZ1i and injected intracranially to form tumors. Seven d post injection tumor and brain tissue were isolated for sectioning. […] Separately, untreated cells were injected and tumors established, then mice were treated IP with either DMSO or PDZ1i (30 mg/kg) three times per wk for two wk. […]

[3] = test system: ImPHFA cells; experiment: clonogenic radiosurvival (colony formation); type: cell-based, human; settings: 50 μM PDZ1i 2 h prior to radiation, 14 d
Description: as §1, §2

[4] = test system: U87 cells; experiment: clonogenic radiosurvival (colony formation); type: cell-based, human; settings: 50 μM PDZ1i 2 h prior to radiation, 14 d
Description: as §1, §2

[5] = test system: U1242-Luc cells; experiment: intracranial U1242-Luc tumors, PDZ1i with or without radiation; type: in vivo, nude mice
Description: FIGS. 14A-14F. PDZ1i treatment combined with radiation in an in vivo model of GBM. FIG. 14A. U1242-luc cells were injected intracranially into nude mice. After 7 days mice were randomized to 4 groups, and mice receiving therapy were treated on days 11-14 as pictured. FIG. 14B. Kaplan-Meier survival curves for each treatment group. Median survival as listed. Two brain tissue samples were isolated for each group, sectioned, and H and E staining is shown. FIG. 14C, DMSO treated mice, FIG. 14D, PDZ1i treated mice, FIG. 14E, mice treated with radiation and DMSO; FIG. 14F, mice treated with radiation and PDZ1i.
PDZ1i combined with radiation extends survival and reduces GBM invasion in vivo. We next investigated the combination of PDZ1i with radiotherapy in vivo. U1242-Luc cells were injected intracranially under anesthesia and formed tumors, confirmed by imaging at 7 d post-injection. At this point, mice were randomized to 4 groups: DMSO treatment, PDZ1i treatment (30 mg/kg), DMSO+IR, and PDZ1i+IR. Treatment began on 11 d post-injection and mice receiving radiation were treated with 2.5 Gy for 4 consecutive d. PDZ1i was administered 2 h prior to radiation treatment on each of the 4 treatment d (FIG. 14A). […] To investigate this, brain tissue sections were collected and H & E stains were analyzed. […]

Cc1cc(NC(=O)c2nc3[nH]c4c(c(=O)n3n2)CCC4)c(C)cc1NC(=O)CCc1nnc(-c2ccccc2)o1 [113B7, N-(2,5-dimethyl-4-(3-(5-phenyl-1,3,4-oxadiazol-2-yl)propanamido)phenyl)-8-oxo-5,6,7,8-tetrahydro-4H-cyclopenta[d][1,2,4]triazolo[1,5-a]pyrimidine-2-carboxamide]
proliferation following radiation [1]: significantly decreased
survival ([2]; PDZ1i 30 mg/kg IP three times per wk): significantly increased
tumor size and demarcation ([2]; cells pretreated with PDZ1i, 7 d post intracranial injection): noticeably smaller and more demarcated neoplasms
radiosensitivity (colony formation) [3]: did not further radiosensitize
radiosensitivity (colony formation) [4]: markedly more radiosensitivity
average survival ([5]; PDZ1i 30 mg/kg 2 h prior to IR, 2.5 Gy for 4 consecutive d): 78.8 days
average survival ([5]; PDZ1i 30 mg/kg alone): 54.7 days
